Literature values, collected in paper PMC8875809, “Comparative venomic profiles of three spiders of the genus Phoneutria” (The Journal of Venomous Animals and Toxins Including …, 2022).
“Also recorded” adds a separate entry of the source.

Tests used:
[1] = tested on: penile erection
Description: PhTx2 toxins inhibit sodium channel inactivation. These toxins are the main responsible for the strongest neurotoxic effects of venom. […] These toxins have been explored as models for the development of a potential drug for the treatment of erectile dysfunction. || PnTx2-6 (MW 5288 Da) contains 48 amino acids, of which 10 are cysteine residues. […] Due to such effects on penile erection, PnTx2-6 has shown good perspectives for clinical application on erectile dysfunction treatment. PnTx2-6 modulates the nitric oxide (NO)/cyclic GMP pathwa ...

[2] = tested on: sodium channels; settings: ref [78]
Description: PnTx2-6 (MW 5288 Da) contains 48 amino acids, of which 10 are cysteine residues. […] Due to such effects on penile erection, PnTx2-6 has shown good perspectives for clinical application on erectile dysfunction treatment. […] Although we have not assayed Tx2-6 isoforms from P. eickstedtae (Pe-V) and P. pertyi (Pp- V), we believe that them has similar effects on sodium channels like PnTx2-6 isoform and similar results would be expected, because these toxins are homologous. The species P. eickstedtae and P. pertyi are rarer spiders. In addition, since Tx1 is the most abundant toxin, only this molecule was used for electrophysiology assays. We believe that our data, as they are, already bring the news to arouse ...

[3] = tested on: nitric oxide (NO)/cyclic GMP pathway; settings: ref [24],[35],[36]
Description: PnTx2-6 (MW 5288 Da) contains 48 amino acids, of which 10 are cysteine residues. […] Due to such effects on penile erection, PnTx2-6 has shown good perspectives for clinical application on erectile dysfunction treatment. PnTx2-6 modulates the nitric oxide (NO)/cyclic GMP pathwa ...

PnTx2-6: contains 48 amino acids, of which 10 are cysteine residues; P. nigriventer toxin (P29425) (ATCAGQDQPCKETCDCCGERGECVCGGPCICRQGYFWIAWYKLANCKK; UniProt P29425 35-82, looked up)
priapism ([1]; ref [21],[24]): found to induce priapism | penile erection in envenomation ([1]; ref [29]): responsible for the penile erection | effect on sodium channel inactivation [2]: modifies the kinetics of sodium channel inactivation; also recorded: decreases sodium channel inactivation | voltage dependence of activation / sodium influx [2]: shifting the voltage dependence of activation towards more hyperpolarized potentials, thus increasing sodium influx | NO release in corpus cavernosum tissue [3]: increased release of NO in the corpus cavernosum tissue
